According to US9211310B2, “Use of a Chinese medicine composition in preparing medicaments for treating secondary prevention of myocardial infarction” (TASLY PHARMACEUTICAL GROUP CO., LTD, priority 2010, dated 2015):

System: patients after acute myocardial infarction
Assay: Life quality, Seattle Angina Questionnaire (SAQ), same clinical trial
Type: in vivo, human
Excerpt: 3508 patients who were in accordance with the diagnostic standards of AMI for 28 days to 2 years and differentiated as Qi deficiency and blood stagnation syndrome by TCM were studied. 0.5 g Chinese medicine composition prepared by the method of EXAMPLE 1 (Coded as QSYQ) was administrated half an hour after meal, 3 times per day.
There were 19 questions in the Seattle angina questionnaire (SAQ), including 5 parts: physical limitation (PL), anginal stability (AS), anginal frequency (AF), treatment satisfaction (TS) and disease perception (DP). After being given necessary explanation by doctors, the questions were answered independently by patients.
They included the overall survival time, angina pectoris score, TCM symptom score and life quality score, where angina pectoris score, TCM symptom score and life quality score were evaluated at randomization, in 1st, 3rd, 6th, 9th, 12th month after treatment and 18th month after follow-up.
All evaluation results of SAQ were described during the period of observation, and Wilcoxon rank sum test was used for inter-group comparison.
The evaluation results in the SAQ were depicted in different observations, and inter-group comparison was tested by Wilcoxon Rank-sum test.

Question: CC(=O)Oc1ccccc1C(=O)O [Control group, aspirine] was tested. Which “SAQ 2nd question: Slightly increased, cases” value (1 month after treatment, PP) did it give?
Answer: Its value is 43.

Question: What about the “SAQ 2nd question: Slightly reduced, % of cases” value (1 month after treatment, PP) of the same molecule?
Answer: The value was “(30.18%)”.

Question: What about the “SAQ 2nd question: Slightly reduced, cases” value (1 month after treatment, PP) of the same molecule?
Answer: The value was 447.

Question: And the “SAQ 3rd question: 1-2 times per week, % of cases” value (1 month after treatment, PP)?
Answer: The value was “(30.18%)”.

Question: What about the “SAQ 3rd question: 1-2 times per week, cases” value (1 month after treatment, PP) of the same molecule?
Answer: The value was 447.

Question: And the “SAQ 3rd question: 1-3 times per day, % of cases” value (1 month after treatment, PP)?
Answer: Its value is “(2.90%)”.

Question: And the “SAQ 3rd question: 1-3 times per day, cases” value (1 month after treatment, PP)?
Answer: Its value is 43.

Question: What about the “SAQ 3rd question: <1 time per week, % of cases” value (1 month after treatment, PP) of the same molecule?
Answer: The value was “(16.75%)”.

Question: What about the “SAQ 3rd question: <1 time per week, cases” value (1 month after treatment, PP) of the same molecule?
Answer: The value was 248.

Question: What about the “SAQ 3rd question: No onset, % of cases” value (1 month after treatment, PP) of the same molecule?
Answer: Its value is “(0.00%)”.

Question: And the “SAQ 3rd question: No onset, cases” value (1 month after treatment, PP)?
Answer: The value was 0.

Question: What about the “SAQ 3rd question: ≧3 times per week, % of cases” value (1 month after treatment, PP) of the same molecule?
Answer: Its value is “(49.63%)”.

Question: What about the “SAQ 3rd question: ≧3 times per week, cases” value (1 month after treatment, PP) of the same molecule?
Answer: The value was 735.

Question: And the “SAQ 3rd question: ≧4 times per day, % of cases” value (1 month after treatment, PP)?
Answer: The value was “(0.54%)”.

Question: What about the “SAQ 3rd question: ≧4 times per day, cases” value (1 month after treatment, PP) of the same molecule?
Answer: The value was 8.

Question: And the “SAQ Question 1-3: Mildly limited, number of patients” value (1 month after treatment, PP)?
Answer: Its value is 114.

Question: What about the “SAQ Question 1-3: Mildly limited, percent of patients” value (1 month after treatment, PP) of the same molecule?
Answer: The value was “(7.67%)”.

Question: And the “SAQ Question 1-3: Moderately limited, number of patients” value (1 month after treatment, PP)?
Answer: Its value is 25.

Question: And the “SAQ Question 1-3: Moderately limited, percent of patients” value (1 month after treatment, PP)?
Answer: Its value is “(1.68%)”.

Question: And the “SAQ Question 1-3: Not limited, number of patients” value (1 month after treatment, PP)?
Answer: The value was 1064.

Question: And the “SAQ Question 1-3: Not limited, percent of patients” value (1 month after treatment, PP)?
Answer: Its value is “(71.60%)”.

Question: What about the “SAQ Question 1-3: Other reasons, number of patients” value (1 month after treatment, PP) of the same molecule?
Answer: Its value is 7.

Question: And the “SAQ Question 1-3: Other reasons, percent of patients” value (1 month after treatment, PP)?
Answer: The value was “(0.47%)”.

Question: What about the “SAQ Question 1-3: Severely limited, number of patients” value (1 month after treatment, PP) of the same molecule?
Answer: Its value is 5.

Question: And the “SAQ Question 1-3: Severely limited, percent of patients” value (1 month after treatment, PP)?
Answer: Its value is “(0.34%)”.

Question: What about the “SAQ Question 1-3: Slightly limited, number of patients” value (1 month after treatment, PP) of the same molecule?
Answer: Its value is 271.

Question: What about the “SAQ Question 1-3: Slightly limited, percent of patients” value (1 month after treatment, PP) of the same molecule?
Answer: Its value is “(18.24%)”.

Question: What about the “SAQ Question 1-4: Mildly limited, number of patients” value (1 month after treatment, PP) of the same molecule?
Answer: Its value is 303.

Question: And the “SAQ Question 1-4: Mildly limited, percent of patients” value (1 month after treatment, PP)?
Answer: Its value is “(20.43%)”.

Question: What about the “SAQ Question 1-4: Moderately limited, number of patients” value (1 month after treatment, PP) of the same molecule?
Answer: The value was 138.

Question: And the “SAQ Question 1-4: Moderately limited, percent of patients” value (1 month after treatment, PP)?
Answer: Its value is “(9.31%)”.

Question: What about the “SAQ Question 1-4: Not limited, number of patients” value (1 month after treatment, PP) of the same molecule?
Answer: Its value is 521.

Question: What about the “SAQ Question 1-4: Not limited, percent of patients” value (1 month after treatment, PP) of the same molecule?
Answer: The value was “(35.13%)”.

Question: And the “SAQ Question 1-4: Other reasons, number of patients” value (1 month after treatment, PP)?
Answer: The value was 11.

Question: And the “SAQ Question 1-4: Other reasons, percent of patients” value (1 month after treatment, PP)?
Answer: Its value is “(0.74%)”.

Question: And the “SAQ Question 1-4: Severely limited, number of patients” value (1 month after treatment, PP)?
Answer: The value was 27.

Question: What about the “SAQ Question 1-4: Severely limited, percent of patients” value (1 month after treatment, PP) of the same molecule?
Answer: The value was “(1.82%)”.

Question: And the “SAQ Question 1-4: Slightly limited, number of patients” value (1 month after treatment, PP)?
Answer: Its value is 483.

Question: What about the “SAQ Question 1-4: Slightly limited, percent of patients” value (1 month after treatment, PP) of the same molecule?
Answer: The value was “(32.57%)”.

Question: What about the “SAQ Question 1-5: Mildly limited, number of patients” value (1 month after treatment, PP) of the same molecule?
Answer: The value was 278.

Question: And the “SAQ Question 1-5: Mildly limited, percent of patients” value (1 month after treatment, PP)?
Answer: The value was “(18.76%)”.

Question: And the “SAQ Question 1-5: Moderately limited, number of patients” value (1 month after treatment, PP)?
Answer: Its value is 166.

Question: And the “SAQ Question 1-5: Moderately limited, percent of patients” value (1 month after treatment, PP)?
Answer: Its value is “(11.20%)”.

Question: And the “SAQ Question 1-5: Not limited, number of patients” value (1 month after treatment, PP)?
Answer: The value was 546.

Question: What about the “SAQ Question 1-5: Not limited, percent of patients” value (1 month after treatment, PP) of the same molecule?
Answer: Its value is “(36.84%)”.

Question: What about the “SAQ Question 1-5: Other reasons, number of patients” value (1 month after treatment, PP) of the same molecule?
Answer: The value was 9.

Question: What about the “SAQ Question 1-5: Other reasons, percent of patients” value (1 month after treatment, PP) of the same molecule?
Answer: The value was “(0.61%)”.

Question: And the “SAQ Question 1-5: Severely limited, number of patients” value (1 month after treatment, PP)?
Answer: Its value is 24.

Question: What about the “SAQ Question 1-5: Severely limited, percent of patients” value (1 month after treatment, PP) of the same molecule?
Answer: Its value is “(1.62%)”.

Question: What about the “SAQ Question 1-5: Slightly limited, number of patients” value (1 month after treatment, PP) of the same molecule?
Answer: The value was 459.

Question: And the “SAQ Question 1-5: Slightly limited, percent of patients” value (1 month after treatment, PP)?
Answer: The value was “(30.97%)”.

Question: And the “SAQ Question 1-9: Mildly limited, % of cases” value (1 month after treatment, PP)?
Answer: The value was “(16.54%)”.

Question: What about the “SAQ Question 1-9: Mildly limited, cases” value (1 month after treatment, PP) of the same molecule?
Answer: Its value is 239.

Question: What about the “SAQ Question 1-9: Moderately limited, % of cases” value (1 month after treatment, PP) of the same molecule?
Answer: The value was “(21.45%)”.

Question: What about the “SAQ Question 1-9: Moderately limited, cases” value (1 month after treatment, PP) of the same molecule?
Answer: The value was 310.

Question: And the “SAQ Question 1-9: Not limited, % of cases” value (1 month after treatment, PP)?
Answer: Its value is “(2.98%)”.

Question: And the “SAQ Question 1-9: Not limited, cases” value (1 month after treatment, PP)?
Answer: The value was 43.

Question: What about the “SAQ Question 1-9: Other reasons, % of cases” value (1 month after treatment, PP) of the same molecule?
Answer: The value was “(6.44%)”.

Question: What about the “SAQ Question 1-9: Other reasons, cases” value (1 month after treatment, PP) of the same molecule?
Answer: Its value is 93.

Question: And the “SAQ Question 1-9: Severely limited, % of cases” value (1 month after treatment, PP)?
Answer: Its value is “(42.70%)”.

Question: And the “SAQ Question 1-9: Severely limited, cases” value (1 month after treatment, PP)?
Answer: The value was 617.

Question: What about the “SAQ Question 1-9: Slightly limited, % of cases” value (1 month after treatment, PP) of the same molecule?
Answer: Its value is “(9.90%)”.

Question: What about the “SAQ Question 1-9: Slightly limited, cases” value (1 month after treatment, PP) of the same molecule?
Answer: Its value is 143.

Question: And the “SAQ 2nd question: Clearly increased, % of cases” value (3 months after treatment, FAS)?
Answer: The value was “(0.92%)”.

Question: What about the “SAQ 2nd question: Clearly increased, cases” value (3 months after treatment, FAS) of the same molecule?
Answer: Its value is 16.

Question: And the “SAQ 2nd question: Clearly reduced, % of cases” value (3 months after treatment, FAS)?
Answer: The value was “(21.15%)”.

Question: What about the “SAQ 2nd question: Clearly reduced, cases” value (3 months after treatment, FAS) of the same molecule?
Answer: Its value is 368.

Question: And the “SAQ 2nd question: Same, % of cases” value (3 months after treatment, FAS)?
Answer: The value was “(42.13%)”.

Question: What about the “SAQ 2nd question: Same, cases” value (3 months after treatment, FAS) of the same molecule?
Answer: Its value is 733.

Question: What about the “SAQ 2nd question: Slightly increased, % of cases” value (3 months after treatment, FAS) of the same molecule?
Answer: Its value is “(3.79%)”.

Question: And the “SAQ 2nd question: Slightly increased, cases” value (3 months after treatment, FAS)?
Answer: Its value is 66.

Question: And the “SAQ 2nd question: Slightly reduced, % of cases” value (3 months after treatment, FAS)?
Answer: Its value is “(32.01%)”.

Question: What about the “SAQ 2nd question: Slightly reduced, cases” value (3 months after treatment, FAS) of the same molecule?
Answer: The value was 557.

Question: What about the “SAQ 3rd question: 1-2 times per week, % of cases” value (3 months after treatment, FAS) of the same molecule?
Answer: Its value is “(32.01%)”.

Question: What about the “SAQ 3rd question: 1-2 times per week, cases” value (3 months after treatment, FAS) of the same molecule?
Answer: Its value is 557.

Question: And the “SAQ 3rd question: 1-3 times per day, % of cases” value (3 months after treatment, FAS)?
Answer: The value was “(3.79%)”.

Question: What about the “SAQ 3rd question: 1-3 times per day, cases” value (3 months after treatment, FAS) of the same molecule?
Answer: Its value is 66.
